US20030059774A1, “Detection of CYP2C19 polymorphisms” (priority 2000, published 2003)

Test system: CYP2C19
Assay: Omeprazole metabolic ratio (MR) phenotyping of study subjects, correlated with CYP2C19 5' flanking region haplotypes
Format: in vivo, human
Settings: for MR (Ome), predicted metabolic ratio: based on 144 samples; for MR-range (min-max): omeprazole 20 mg oral, 3 hours; for mr50 (metabolic ratio of the 50th percentile), mr(omeprazole): single oral dose 20 mg omeprazole, blood sample 3 hours after intake
Experimental: The study was performed in accordance with the principles stated in the Declaration of Helsinki as reviewed in Tokyo 1975 and Venice 1983, Hong Kong 1989 and Somerset West 1996. Subjects were preferably not related to each other. Based on questioning, individuals having one of the following were excluded: a medical condition judged to influence liver function or requiring pharmacological treatment; any on-going disease; intake of any drug, except oral contraceptives, during one week prior to the study; breast-feeding or pregnancy. No physical examination was performed. For these experiments, a single oral dose of 20 mg omeprazole (Losec, AstraZeneca) was given in the morning after an overnight fast. The bladder was emptied before drug intake. A single blood sample was collected 3 hours after drug intake.
In the first part of the study, approximately 90 samples (Swedish Caucasians) were selected as set forth in Table 1, on the basis of the following assumptions: if the distribution of an unknown polymorphism will be 25% for a homozygote, a sample size of approximately 40 “UEM” will be able to detect an increase in this specific genotype (homozygote) by 28% (α=5% (two-tailed), power=80%). If it is assumed that the distribution of an unknown polymorphism will be 10% for a homozygote, a sample size of approximately 40 “UEM” will be able to detect an increase in this specific genotype (homozygote) by 21% (α-5% (two-tailed), power=80%). The samples were selected with regard to their phenotyped metabolic ratios (MR) of omeprazole. Available genotype information for all samples was provided.
In the second part of the study, 71 samples with a more normal phenotypic distribution were used. Also, no exclusion of individuals with known defective alleles or duplications was done.
This analysis was performed using software based on maximum likelihood methodology and using the EM algorithm of Excoffier et al. (1995), Mol Biol Evol. 12:921-927. […] From the haplotype information two different kinds of variables were created: one variable was formed as a haplotype combination variable (HTYPE). This variable has the value H1/H2 when the subject has haplotypes 1 and 2, etc. Variables H1, H2, H3 and H4 are haplotype annotations that denote the number of copies of that particular haplotype for the subject, e.g., for a subject with haplotype H1/H2 the variables H1, H2, H3 and H4 will be 1, 1, 0 and 0, respectively. Each of these variables can thus take on the values 0, 1 or 2. Only the four most frequent haplotypes were considered when those variables were formed.

COc1ccc2[nH]c([S+]([O-])Cc3ncc(C)c(OC)c3C)nc2c1 (stereo not drawn) [omeprazole]
MR (Ome), predicted metabolic ratio (HTYPE H1/H1 (352 C, 1060 T), marker for EM): 0.2-0.8 | MR-range (min-max) (HTYPE H1/H1, 63 subjects): 0.17-2.90 | MR (Ome), predicted metabolic ratio (HTYPE H1/H2 (352 C/T, 1060 T), marker for UEM & EM): <0.8 | MR-range (min-max) (HTYPE H1/H2, 31 subjects): 0.12-2.62 | MR (Ome), predicted metabolic ratio (HTYPE H1/H3 (352 C, 1060 C/T), marker for EM &IM): 0.4-7.0 | MR-range (min-max) (HTYPE H1/H3, 27 subjects): 0.03-11.87 | MR (Ome), predicted metabolic ratio (HTYPE H2/H2 (352 T, 1060 T), marker for UEM/EM): <0.4 | MR-range (min-max) (HTYPE H2/H2, 4 subjects): 0.15-0.33 | MR (Ome), predicted metabolic ratio (HTYPE H2/H3 (352 C/T, 1060 C/T), marker for EM & (IM)): 0.4-2.0 | MR-range (min-max) (HTYPE H2/H3, 12 subjects): 0.36-1.75 | MR (Ome), predicted metabolic ratio (HTYPE H3/H3 (352 C, 1060 C), marker for PM): >7.0 | MR-range (min-max) (HTYPE H3/H3, 7 subjects): 1.28-23.75 | mr50 (metabolic ratio of the 50th percentile), mr(omeprazole) (haplotype H1/H1, n = 60): mr50 = 0.485 | mr50 (metabolic ratio of the 50th percentile), mr(omeprazole) (haplotype H1/—, n = 63): mr50 = 0.63 | mr50 (metabolic ratio of the 50th percentile), mr(omeprazole) (haplotype H2/H2, n = 4): mr50 = 0.25 | mr50 (metabolic ratio of the 50th percentile), mr(omeprazole) (haplotype H2/—, n = 44): mr50 = 0.485 | mr50 (metabolic ratio of the 50th percentile), mr(omeprazole) (haplotype H3/H3, n = 7): mr50 = 16.86 | mr50 (metabolic ratio of the 50th percentile), mr(omeprazole) (haplotype H3/—, n = 39): mr50 = 0.88 | mr50 (metabolic ratio of the 50th percentile), mr(omeprazole) (haplotype H4/H4, n = 2): mr50 = 1.5 | mr50 (metabolic ratio of the 50th percentile), mr(omeprazole) (haplotype H4/—, n = 14): mr50 = 0.755 | mr50 (metabolic ratio of the 50th percentile), mr(omeprazole) (haplotype —/— (no copy of H1), n = 30): mr50 = 0.97 | mr50 (metabolic ratio of the 50th percentile), mr(omeprazole) (haplotype —/— (no copy of H2), n = 105): mr50 = 0.64 | mr50 (metabolic ratio of the 50th percentile), mr(omeprazole) (haplotype —/— (no copy of H3), n = 107): mr50 = 0.47 | mr50 (metabolic ratio of the 50th percentile), mr(omeprazole) (haplotype —/— (no copy of H4), n = 137): mr50 = 0.56
